Test results taken from patent publication US20040077728A1, “Retiferol derivatives and their use in the treatment of skin diseases or conditions associated with photodamage” (priority 2000, published 2004).

Assay: Calcium liability (tolerance test in mice)
Assay type: in vivo
Conditions: mice (25-30 g), daily subcutaneous administration for 4 consecutive days; dose giving zero weight gain over the 5-day treatment period
Text: Calcium Liability (Tolerance Test in Mice):
This test gives a global picture of calcemic liability. Profound changes in calcium homeostasis strongly affect the weight development of the animals. This parameter was used as a primary test for tolerance. Mice (25-30 g body weight) received daily subcutaneous administrations of the vitamin D derivative for 4 consecutive days. Body weight was registered just before and at the end of a 5-day treatment period. The “highest tolerated dose” (HTDsc) in mice is the dose which results in zero weight gain during this treatment period.

C=C1/C(=C\C=C2/CCC[C@]3(C)[C@@H]([C@H](C)CCCC(C)(C)O)CC[C@@H]23)C[C@@H](O)C[C@@H]1O [calcitriol]
HTDs.c. highest tolerated dose without weight loss: 1 µg/kg
